Laboratory results: PubChem BioAssay (NCI)
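Cultured in 96-well plates, cells were exposed to test compound for 48 hours across five concentrations. GI50 marks 50% less growth. TGI is the concentration that stops growth completely.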

Assays:
Experiment in all cases: NCI anticancer screen, dose series, 48 h
[1] = tested on: A549 NSCLC
[2] = tested on: MDA-MB-468 breast
[3] = tested on: ACHN renal
[4] = tested on: HCT-15 colon
[5] = tested on: MCF7 breast
[6] = tested on: SK-MEL-5 melanoma
[7] = tested on: SNB-19 CNS
[8] = tested on: HCC-2998 colon
[9] = tested on: SK-OV-3 ovarian
[10] = tested on: M14 melanoma
[11] = tested on: SK-MEL-28 melanoma
[12] = tested on: PC-3 prostate
[13] = tested on: HOP-92 NSCLC
[14] = tested on: HT29 colon
[15] = tested on: UACC-257 melanoma
[16] = tested on: CCRF-CEM leukemia
[17] = tested on: SF-268 CNS
[18] = tested on: COLO 205 colon
[19] = tested on: BT-549 breast
[20] = tested on: NCI-H23 lung
[21] = tested on: RXF 393 renal
[22] = tested on: NCI-H226 lung
[23] = tested on: NCI-H460 lung
[24] = tested on: NCI-H522 lung
[25] = tested on: SF-539 CNS
[26] = tested on: U251 CNS
[27] = tested on: OVCAR-5 ovarian
[28] = tested on: MOLT-4 leukemia
[29] = tested on: MALME-3M melanoma
[30] = tested on: SN12C renal
[31] = tested on: HL-60(TB) leukemia
[32] = tested on: OVCAR-3 ovarian
[33] = tested on: SW-620 colon
[34] = tested on: OVCAR-4 ovarian
[35] = tested on: TK-10 renal
[36] = tested on: T-47D breast
[37] = tested on: DU-145 prostate
[38] = tested on: UACC-62 melanoma
[39] = tested on: HCT-116 colon
[40] = tested on: NCI/ADR-RES ovarian
[41] = tested on: A498 renal
[42] = tested on: KM12 colon
[43] = tested on: EKVX NSCLC
[44] = tested on: OVCAR-8 ovarian
[45] = tested on: LOX IMVI melanoma
[46] = tested on: HS 578T breast
[47] = tested on: IGROV1 ovarian
[48] = tested on: MDA-MB-435
[49] = tested on: CAKI-1 renal
[50] = tested on: SR leukemia
[51] = tested on: SF-295 CNS
[52] = tested on: K-562 leukemia
[53] = tested on: RPMI-8226 leukemia
[54] = tested on: 786-0 renal
[55] = tested on: HOP-62 NSCLC

CC(C)C[C@H](NC(=O)CNC(=O)C[C@H]1O[C@@H]2OC3(C)CC[C@H]4[C@H](C)CC[C@@H]([C@H]1C)[C@@]24OO3)B(O)O
GI50 [1]: 3030 nM
TGI [1]: > 65000 nM
GI50 [2]: 341 nM
TGI [2]: 1560 nM
GI50 [3]: 4750 nM
TGI [3]: > 65000 nM
GI50 [4]: 5520 nM
TGI [4]: 16500 nM
GI50 [5]: 349 nM
TGI [5]: > 65000 nM
GI50 [6]: 1090 nM
TGI [6]: 2270 nM
GI50 [7]: 3440 nM
TGI [7]: > 65000 nM
GI50 [8]: 1170 nM
TGI [8]: 2210 nM
GI50 [9]: 4130 nM
TGI [9]: 38200 nM
GI50 [10]: 1240 nM
TGI [10]: 3460 nM
GI50 [11]: 716 nM
TGI [11]: 3370 nM
GI50 [12]: 2520 nM
TGI [12]: 57800 nM
GI50 [13]: 1500 nM
TGI [13]: 4900 nM
GI50 [14]: 983 nM
TGI [14]: 3460 nM
GI50 [15]: 818 nM
TGI [15]: 2140 nM
GI50 [16]: 251 nM
TGI [16]: 2740 nM
GI50 [17]: 2390 nM
TGI [17]: > 65000 nM
GI50 [18]: 2640 nM
TGI [18]: 13800 nM
GI50 [19]: 261 nM
TGI [19]: 1220 nM
GI50 [20]: 1680 nM
TGI [20]: 8450 nM
GI50 [21]: 162 nM
TGI [21]: 556 nM
GI50 [22]: 455 nM
TGI [22]: 1500 nM
GI50 [23]: 3540 nM
TGI [23]: 18900 nM
GI50 [24]: 531 nM
TGI [24]: 1670 nM
GI50 [25]: 370 nM
TGI [25]: 1540 nM
GI50 [26]: 2390 nM
TGI [26]: 14500 nM
GI50 [27]: 1680 nM
TGI [27]: 10300 nM
GI50 [28]: 267 nM
TGI [28]: 5190 nM
GI50 [29]: 719 nM
TGI [29]: 2790 nM
GI50 [30]: 1920 nM
TGI [30]: 7920 nM
GI50 [31]: 210 nM
TGI [31]: 4620 nM
GI50 [32]: 583 nM
TGI [32]: 3120 nM
GI50 [33]: 437 nM
TGI [33]: 8240 nM
GI50 [34]: 3040 nM
TGI [34]: > 65000 nM
GI50 [35]: 2340 nM
TGI [35]: 51400 nM
GI50 [36]: 771 nM
TGI [36]: 2930 nM
GI50 [37]: 7320 nM
TGI [37]: > 65000 nM
GI50 [38]: 958 nM
TGI [38]: 2210 nM
GI50 [39]: 437 nM
TGI [39]: 1750 nM
GI50 [40]: 55300 nM
TGI [40]: > 65000 nM
GI50 [41]: 5480 nM
TGI [41]: > 65000 nM
GI50 [42]: 1670 nM
TGI [42]: 4450 nM
GI50 [43]: 5950 nM
TGI [43]: > 65000 nM
GI50 [44]: 1990 nM
TGI [44]: 8040 nM
GI50 [45]: 753 nM
TGI [45]: 1680 nM
GI50 [46]: 1910 nM
TGI [46]: > 65000 nM
GI50 [47]: 2690 nM
TGI [47]: 13800 nM
GI50 [48]: 275 nM
TGI [48]: 1690 nM
GI50 [49]: 24300 nM
TGI [49]: > 65000 nM
GI50 [50]: 188 nM
TGI [50]: 805 nM
GI50 [51]: 2170 nM
TGI [51]: 9460 nM
GI50 [52]: 1920 nM
TGI [52]: > 65000 nM
GI50 [53]: 184 nM
TGI [53]: 604 nM
GI50 [54]: 3320 nM
TGI [54]: > 65000 nM
GI50 [55]: 3050 nM
TGI [55]: 14700 nM
